The record followed here is patent publication US12448632B2, “Guanidine degradation enzyme and methods of use” (Alliance for Sustainable Energy, LLC, priority 2020, dated 2025).

One data set has as its system GD7942 (+sll1077). The experiment in a line: Guanidine tolerance test, cell growth. It is filed as cell-based, Synechococcus elongatus PCC 7942. The protocol:
Guanidine tolerance and degradation test. […] For guanidine degradation test, cyanobacterial strains were grown in 10 mL mBG11 free of nitrate while supplemented with 50 mM NaHCO3 and 5 mM or 1 mM guanidine chloride, under constant light of 50 μE m^−2 s^−1 on a rotary shaker at 150 rpm and 30° C. Every day, 1 mL of culture was sampled for reading OD730 and then transferred into an Eppendorf tube and centrifuged at 17000×g at room temperature for 2 min. The supernatants were stored at −20° C. for later analysis of guanidine.

Data set [1] relates to Synechococcus 7942. It counts as cell-based, Synechococcus elongatus PCC 7942. The protocol: (§1) Guanidine tolerance and degradation test. For guanidine tolerance test, cyanobacterial strains were grown in 20 mL mBG11 medium supplemented with 0-1 mM guanidine and 50 mM NaHCO3. For guanidine degradation test, cyanobacterial strains were grown in 10 mL mBG11 free of nitrate while supplemented with 50 mM NaHCO3 and 5 mM or 1 mM guanidine chloride, under constant light of 50 μE m^−2 s^−1 on a rotary shaker at 150 rpm and 30° C. Every day, 1 mL of culture was sampled for reading OD730 and then transferred into an Eppendorf tube and centrifuged at 17000×g at room temperature for 2 min. The supernatants were stored at −20° C. for later analysis of guanidine.

Another data set relates to Δsll1077 strain (PB805W). The experiment in a line: Growth in nitrate-deprived medium with guanidine. It counts as cell-based, Synechocystis sp. PCC 6803. To be noted: guanidine-supplemented (5 mM) versus nitrogen-deprived conditions. On the procedure: as §1
The test system of data set [2] is Synechococcus 7942. In words: Cell growth with urea in culture medium. It is filed as cell-based, Synechococcus elongatus PCC 7942. Particulars: 5 mM urea; nitrate-deprived or nitrate-replete conditions.

Take `N=C(N)N` [guanidine]: the figures for the cell growth entry in the data set with GD7942 (+sll1077) (1 mM guanidine in culture medium), in the data set with GD7942 (+sll1077) (2 mM guanidine in culture medium) and in the data set on Δsll1077 strain (PB805W) were “not apparently repressed”, “only slightly inhibited” and “severely inhibited”, respectively. In addition, in the data set on Synechococcus 7942 [1], the “guanidine concentration at which cell growth was already inhibited” value is 0.3 mM.

As for `NC(N)=O` [urea], the “impact on cell growth” value in the data set with Synechococcus 7942 [2] is recorded as “did not show any apparent impact on the cell growth”.
